One block for each compound: values may come before it.
Columns and labels:
Mus musculus [1] = organism: Mus musculus; experiment: Analgesic activity in mouse assessed reduction in number of acetic acid-induced writhing measured for 20 mins (reference value: 40 +/- 2.9); type: functional
Mus musculus [2] = organism: Mus musculus; experiment: Analgesic activity in mouse assessed protection against acetic acid-induced writhing measured for 20 mins relative to control; type: functional
Rattus norvegicus [3] = experiment: Anti-inflammatory activity in carrageen-induced paw edema rat model assessed as change in paw height measured immediately (reference value: 0.56 +/- 0.05 %); type: functional
Rattus norvegicus [4] = experiment: Anti-inflammatory activity in carrageen-induced paw edema rat model assessed as change in paw height measured after 1 hr (reference value: 0.68 +/- 0.04 %); type: functional
Rattus norvegicus [5] = experiment: Anti-inflammatory activity in carrageen-induced paw edema rat model assessed as change in paw height measured after 2 hrs (reference value: 0.64 +/- 0.05 %); type: functional
Rattus norvegicus [6] = experiment: Anti-inflammatory activity in carrageen-induced paw edema rat model assessed as change in paw height measured after 3 hrs (reference value: 0.78 +/- 0.08 %); type: functional
Rattus norvegicus [7] = experiment: Anti-inflammatory activity in carrageen-induced paw edema rat model assessed as inhibition of edema measured after 3 hrs relative to control; type: functional
[8] = Ulcerogenic activity in Albino mouse assessed as histopathological change in stomach by H and E staining based analysis; type: toxicity; conditions: in vivo
[9] = Ulcerogenic activity in Albino mouse assessed as inflammation in stomach by H and E staining based analysis; type: toxicity; conditions: in vivo
[10] = target: Prostaglandin G/H synthase 1 (Homo sapiens, UniProt P23219)
Prostaglandin G/H synthase 1, sequence (P23219 whole entry): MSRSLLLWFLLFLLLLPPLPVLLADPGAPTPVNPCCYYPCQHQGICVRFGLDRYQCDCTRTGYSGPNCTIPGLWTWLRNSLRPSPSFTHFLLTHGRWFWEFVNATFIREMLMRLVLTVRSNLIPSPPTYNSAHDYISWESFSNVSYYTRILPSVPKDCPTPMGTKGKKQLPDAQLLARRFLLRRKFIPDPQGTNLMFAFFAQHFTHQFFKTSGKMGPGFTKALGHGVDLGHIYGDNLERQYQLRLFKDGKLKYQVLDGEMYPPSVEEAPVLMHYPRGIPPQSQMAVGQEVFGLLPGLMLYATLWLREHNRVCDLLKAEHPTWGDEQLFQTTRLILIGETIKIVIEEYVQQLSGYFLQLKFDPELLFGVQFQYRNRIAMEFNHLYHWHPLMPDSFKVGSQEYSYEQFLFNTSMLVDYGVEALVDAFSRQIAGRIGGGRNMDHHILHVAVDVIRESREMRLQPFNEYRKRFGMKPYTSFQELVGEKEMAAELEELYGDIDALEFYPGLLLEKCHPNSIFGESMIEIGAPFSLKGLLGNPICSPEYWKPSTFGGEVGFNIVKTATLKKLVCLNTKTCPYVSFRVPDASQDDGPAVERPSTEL

Carbonic anhydrase 1 = Carbonic anhydrase 1 (Homo sapiens, UniProt P00915); experiment: Binding affinity to human CA1 assessed as inhibition constant by stopped flow kinetic assay
Carbonic anhydrase 1, sequence (P00915 whole entry): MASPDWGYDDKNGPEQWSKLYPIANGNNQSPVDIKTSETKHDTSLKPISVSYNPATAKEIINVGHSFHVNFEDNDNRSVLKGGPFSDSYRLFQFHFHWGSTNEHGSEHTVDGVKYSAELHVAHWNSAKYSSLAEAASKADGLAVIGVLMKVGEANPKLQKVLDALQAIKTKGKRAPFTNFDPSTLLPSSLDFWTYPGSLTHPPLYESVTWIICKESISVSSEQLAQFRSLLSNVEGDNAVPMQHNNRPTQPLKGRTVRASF

Carbonic anhydrase 2 = Carbonic anhydrase 2 (Homo sapiens, UniProt P00918); experiment: Binding affinity to human CA2 assessed as inhibition constant by stopped flow kinetic assay
Carbonic anhydrase 9 = Carbonic anhydrase 9 (Homo sapiens, UniProt Q16790); experiment: Binding affinity to human CA9 assessed as inhibition constant by stopped flow kinetic assay
Carbonic anhydrase 12 = Carbonic anhydrase 12 (Homo sapiens, UniProt O43570); experiment: Binding affinity to human CA12 assessed as inhibition constant by stopped flow kinetic assay
Carbonic anhydrase 12, sequence (O43570 whole entry): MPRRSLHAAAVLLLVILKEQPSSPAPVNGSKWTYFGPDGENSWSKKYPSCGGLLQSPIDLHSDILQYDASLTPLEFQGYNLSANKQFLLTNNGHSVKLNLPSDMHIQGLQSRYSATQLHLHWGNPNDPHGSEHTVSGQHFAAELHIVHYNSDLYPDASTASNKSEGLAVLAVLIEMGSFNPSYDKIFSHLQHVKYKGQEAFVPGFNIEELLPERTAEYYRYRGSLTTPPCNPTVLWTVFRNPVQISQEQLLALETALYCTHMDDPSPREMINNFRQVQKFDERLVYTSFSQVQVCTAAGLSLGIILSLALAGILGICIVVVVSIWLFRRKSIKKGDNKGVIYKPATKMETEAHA

Compound: O=C(O)Cc1ccccc1Nc1c(Cl)cccc1Cl [DICLOFENAC]
Activity (Mus musculus [1]): 12 | Activity (Mus musculus [2]): 70% | Activity (Rattus norvegicus [3]): 0.52% | Activity (Rattus norvegicus [4]): 0.28% | Activity (Rattus norvegicus [5]): 0.32% | Activity (Rattus norvegicus [6]): 0.32% | inhibition (INH) (Rattus norvegicus [7]): 59% | Activity [8]: Toxic | Activity [9]: Toxic

IC50 [10]: 9.5 µM
Compound: Nc1c(C(=O)N/N=C/c2cccs2)cnn1-c1ccc(S(N)(=O)=O)cc1

IC50 [10]: 12.5 µM | Ki (Carbonic anhydrase 1): 0.134 µM | Ki (Carbonic anhydrase 2): 0.0269 µM | Ki (Carbonic anhydrase 9): 0.0489 µM | Ki (Carbonic anhydrase 12): 0.0058 µM
Compound: Nc1c(C(=O)N/N=C/c2ccc(O)cc2)cnn1-c1ccc(S(N)(=O)=O)cc1
Activity (Mus musculus [1]): 19 | Activity (Mus musculus [2]): 52.5% | Activity (Rattus norvegicus [3]): 0.48% | Activity (Rattus norvegicus [4]): 0.52% | Activity (Rattus norvegicus [5]): 0.62% | Activity (Rattus norvegicus [6]): 0.54% | inhibition (INH) (Rattus norvegicus [7]): 31% | Activity [8]: Non-Toxic

IC50 [10]: 7 µM
Compound: CN(C)c1ccc(/C=N/NC(=O)c2cnn(-c3ccc(S(N)(=O)=O)cc3)c2N)cc1

IC50 [10]: 10.4 µM
Compound: Nc1c(C(=O)N/N=C/c2ccccc2)cnn1-c1ccc(S(N)(=O)=O)cc1
Activity [8]: Non-Toxic

IC50 [10]: 6 µM
Compound: COc1ccc(/C=N/NC(=O)c2cnn(-c3ccc(S(N)(=O)=O)cc3)c2N)cc1

Compound: Cc1ccc(-c2cc(C(F)(F)F)nn2-c2ccc(S(N)(=O)=O)cc2)cc1 [CELECOXIB]
Activity (Mus musculus [1]): 16 | Activity (Mus musculus [2]): 60% | Activity (Rattus norvegicus [3]): 0.5% | Activity (Rattus norvegicus [4]): 0.44% | Activity (Rattus norvegicus [5]): 0.52% | Activity (Rattus norvegicus [6]): 0.48% | inhibition (INH) (Rattus norvegicus [7]): 38.5% | Activity [8]: Non-Toxic

IC50 [10]: 10.5 µM
Compound: Nc1c(C(=O)N/N=C/c2ccccc2Cl)cnn1-c1ccc(S(N)(=O)=O)cc1

IC50 [10]: 4.8 µM
Compound: Nc1c(C(=O)N/N=C/c2ccccc2[N+](=O)[O-])cnn1-c1ccc(S(N)(=O)=O)cc1

IC50 [10]: 5 µM
Compound: Nc1c(C(=O)N/N=C/c2cccc([N+](=O)[O-])c2)cnn1-c1ccc(S(N)(=O)=O)cc1

IC50 [10]: 5 µM
Compound: Nc1c(C(=O)N/N=C/c2ccc([N+](=O)[O-])cc2)cnn1-c1ccc(S(N)(=O)=O)cc1

IC50 [10]: 8 µM
Compound: Nc1c(C(=O)N/N=C/c2ccc(Cl)cc2)cnn1-c1ccc(S(N)(=O)=O)cc1

Reference: ChEMBL document CHEMBL5385885, “4-(5-Amino-pyrazol-1-yl)benzenesulfonamide derivatives as novel multi-target anti-inflammatory agents endowed with inhibitory activity against COX-2, 5-LOX and carbonic anhydrase: Design, synthesis, and biological assessments” (Eur J Med Chem, 2023)
